{"source": "patent US11154551B2", "about": "“HDAC1,2 inhibitors and methods of using the same” (UNIVERSITY OF UTAH RESEARCH FOUNDATION, priority 2014, dated 2021)", "key": {"Karpas-422 cells": {"tested_on": "Karpas-422 cells", "assay": "RNA-seq gene expression analysis", "assay_type": "cell-based, human", "details": "24 h", "method": "RNA samples obtained from three independent treatments were subjected to RiboZero stranded sequencing using the Illumina Hiseq2000 sequencer. RNA-seq data from ACY-957-treated samples was compared to the publically available RNA seq data set from Karpas-422 cells following GSK126 treatment of Karpas-422 cells. […] Genes with adjusted p-value<0.05 and absolute log 2 fold change>0.585 were used in this analysis.\nTotal RNA was isolated from Karpas cells that were treated with DMSO or 2 μM ACY-957 for 24 h using the Versagene RNA isolation kit (5 Prime). The treatments were done in triplicate and sequenced using the Illumina Hiseq2000 sequencer. Illumina TruSeq Stranded sequencing following RiboZero treatment was performed.\nThree independent DMSO or ACY-957 treatments of Karpas-422 cells for 24 h were performed for total RNA isolation, which was then subjected to RNA-seq involving next-generation sequencing and bioinformatics analysis."}, "[1]": {"tested_on": "SUDHL4 and Karpas-422 cells", "assay": "γH2AX foci formation by immunofluorescence", "assay_type": "cell-based, human", "procedure": "The percentage of cells with 6 or greater γH2AX foci were counted in three independent experiments and at least 100 cells were counted in each experiment. […] Histones were purified using trichloroacetic acid extraction protocol (see Example 1). Western blot analysis was done with anti-γH2AX and histone H2AX served as the loading control. […] Following DMSO or ACY957 treatment, cells were exposed to a 5Gy dose of ionizing radiation and allowed to recover for 30 minutes prior to chromatin extraction. Western blot analysis was done with anti-γH2AX where total histone H2AX served as a loading control. (D): Karpas-422 cells were micro-irradiated with laser and allowed to recover for 15 minutes before fixation and immunofluorescence staining with anti-γH2AX, anti-HDAC1 and anti-HDAC2 antibodies was done.\nImmunofluorescence. Cells were fixed in either 10% formalin or methanol-acetone (1:1) for 10 min at −20*C. The cells were then permeabilized with 0.5% Triton-X-100 in PBS for 5 min at room temperature (RT), blocked in 10% normal goat serum (Sigma) for 30 min and stained with primary antibody for 1 h at RT. Cells were incubated with secondary antibody (anti-mouse or anti-rabbit IgG, Alexa Fluor 488/546) at a 1:600 dilution for 45 min at RT, and counterstained with Hoechst 33342 (Sigma) at 1:1000 dilution to visualize the nuclei. Images were captured using Zeiss Axioskop mot plus microscope with a 40× lens and analyzed using the AxioVision software."}, "[2]": {"tested_on": "Hdac1,2 or Hdac3 knockout cell lines", "assay": "Western blot of H4K5ac in conditional Hdac1,2 or Hdac3 knockout cells", "assay_type": "cell-based, mouse", "procedure": "For IC50 determination, recombinant HDAC enzymes were treated with HDAC1,2 or HDAC3 inhibitors in in vitro HDAC assays. (B). Western blots for H3K23ac using extracts from Pre-B-ALL SupB15 cells treated with increasing dose of HDAC1,2 inhibitor (ACY1035). (C). Hdac1^FI/FI, 2^FI/FI cells were infected with Ad-Cre virus to delete HDAC1 and HDAC2 (HDAC1,2 null) or uninfected (WT). (D). Hdac3^FI/FI cells were either uninfected (WT) or infected with Ad-Cre virus to delete Hdac3."}, "[3]": {"tested_on": "non-transformed, mouse bone marrow Pro-B derived Baf3 cells or cord blood stem cells", "assay": "cell death in non-transformed cells", "assay_type": "cell-based", "details": "2 μM, within 72 hr", "text": "Therefore, transformed lymphoma cells are more sensitive to HDAC1,2 inhibition when compared to the untransformed normal B-cells. HDAC1,2 inhibitor causes replication fork collapse in S-phase to trigger DNA damage response, and transformed cancer cells have increased DNA replication when compared to normal B cells. […] In addition to this property, EZH2^GOF DLBCL cells also have increased DNA repair compared to EZH2^WT DLBCL cells (FIG. 34A), which can also be targeted by HDAC1,2 inhibitor as it impairs the HDAC1,2 regulated DNA repair processes used by EZH2^GOF DLBCL cells for their survival."}, "[4]": {"tested_on": "glioma cell lines U-87 and U-251", "assay": "propidium iodide FACS cell cycle analysis", "assay_type": "cell-based", "details": "2 μM, 72 hours", "procedure": "Cells were treated with ACY957 or DMSO for 72 hours, stained with propidium iodide, and assessed by FACS. The percentage of cells in Sub-G1, G1, S, and G2-M phases were quantified for each sample.\nGlioma is a type of primary brain tumor that originates in the glial cells present in the brain or spinal cord. The glioma cell lines U-87 and U-251 were treated with either DMSO or 2 μM ACY957 for 72 hours and then subjected to propidium iodide staining and FACS analysis to evaluate cell cycle progression."}}, "data": [{"compound": "Nc1ccc(-c2cccs2)cc1NC(=O)c1ccc2nc(N3CCNCC3)ccc2c1", "note": "[ACY-957, N-(2-amino-5-(thiophen-2-yl)phenyl)-2-(piperazin-1-yl)quinoline-6-carboxamide]", "values": [{"measurement": "number of genes up regulated", "setting": "Karpas-422 cells; 2 μM, vs DMSO", "value": 492, "unit": "genes"}, {"measurement": "BLIMP1 expression up regulation", "setting": "Karpas-422 cells; DESeq analysis of RNA-seq", "value": 1.7, "unit": "fold"}, {"measurement": "cells with γH2AX foci", "setting": "[1]; 48 h, 2 μM ACY-957, 0.5 μM DZNEP, 0.5 μM GSK126", "value": "significant increase in the number of cells with greater than six γH2AX foci"}, {"measurement": "γH2AX foci by immunofluorescence", "setting": "[1]; EZH2GOF DLBCL cells", "value": "increase in γH2AX"}, {"measurement": "H4K5ac in Hdac3-null cells", "setting": "[2]", "value": "additive increase in H4K5ac"}, {"measurement": "cell death", "setting": "[3]", "value": "did not cause any cell death"}, {"measurement": "effect on the cell cycle", "setting": "[4]", "value": "No effect on the cell cycle"}]}]}
